Source: patent publication US20090232735A1, “USE OF FRUCTOSE-BASED THERAPIES FOR THE TREATMENT OF CANCER” (CEDARS-SINAI MEDICAL CENTER, priority 2005, published 2009)

Experiments:
Type in all cases: cell-based, human
GLUT-5 mRNA = GLUT-5 mRNA by quantitative real-time RT-PCR in MCF-7 cells
Experimental: FIG. 10 depicts GLUT-5 expression levels in accordance with an embodiment of the present invention. MCF-7 breast cancer cells were incubated in 2 mM glucose (Glu), 5.5 mM glucose (Glu) or 5.5 mM fructose (Fru) for 4 or 24 hours, after which GLUT-5 expression was quantified using real-time RT-PCR, normalized to GAPDH levels, and expressed as fold-increase compared to GLUT-5 levels detected in MCF-7 cells cultured in 2 mM glucose for a similar time period.
Cellular fructose uptake is facilitated by a member of solute carrier family 2, called glucose transporter type 5 (GLUT-5). Following incubation of MCF-7 breast cancer cells in 2 mM, 5.5 mM glucose or 5.5 mM fructose for […], total RNA was harvested, and analyzed by quantitative real-time RT-PCR analysis using GLUT-5 specific primers to quantify GLUT-5 mRNA expression. GLUT-5 expression was normalized to GAPGH mRNA expression, and expressed as fold-change in comparison to control breast cancer cells incubated in 2 mM glucose for 4, and 24 hours.

[1] = tested on: uric acid production in PANC-1 cells; experiment: Uricase activity / uric acid production in PANC-1 conditioned medium; settings: 5.5 mM fructose
Experimental: FIG. 32 depicts uric acid productionin PANC-1 cells in accordance with an embodiment of the present invention. Uric acid production in pancreatic cancer PANC-1 cells following incubation in 2 mM glucose, 5.5 mM glucose, and 5.5 mM fructose for 24 h, 48, 72, and 96 h respectively, p<0.01 5.5 mM fructose versus 5.5 mM glucose.
Based on the metabolomic studies which led the inventors to believe that fructose was metabolized in pancreatic cancer cells in large part to generate nucleic acids, the inventors devised a series of experiments to examine nucleic acid synthesis in the pancreatic cancer cells following either glucose or fructose-treatment. PANC-1 cells were incubated as before in 5.5 mM glucose or fructose for 24 h, following an ELISA-based fluorimetric assay (Amplex Red Uric acid uricase assay kit, Invitrogen) was employed to measure uricase activity in conditioned medium derived from the pancreatic cancer cells (Shi Y, Evans J E, Rock K L. Molecular identification of a danger signal that alerts the immune system to dying cells Nature 425, 516-21, 2003). Uricase activity correlates highly with uric acid production, a purine by-product of nucleic acid synthesis. […] Fluoresence was measured in a fluorescence microplate reader using excitation at 530 nm and detection at 590 nm, and the assay can detect levels as low as 100 nM uric acid.

transketolase (TKK) = experiment: Transketolase expression by Western blot in PANC-1 cells; settings: PANC-1, 5.5 mM fructose, 24 h and 48 h
Experimental: FIG. 33 depicts Western blot analysis of transketolase expression in pancreatic cancer PANC-1 cells following incubation in 2 mM glucose (lanes 1 & 4), 5.5 mM glucose (lanes 2 & 5), and 5.5 mM fructose for 24 h, and 48 h, respectively, in accordance with an embodiment of the present invention. Quantitation of TKK protein levels is depicted in the lower panel.
The inventors believe that fructose-treatment of pancreatic cancer cells led to an increase in TKK-driven nucleic acid synthesis, and thus fructose-treatment would result in an increase in either PANC-1 TKK expression and/or activity in comparison to equivalent glucose concentrations. Western blot analysis on protein lysates derived from fructose-, and glucose-treated PANC-1 cells were performed (5.5 mM fructose, and glucose for 24, and 48 h as per previous protocol) using a specific TKK antibody, and compared TKK expression in the fructose-, and glucose-treated PANC-1 cells. […] After gentle mixing the absorbance of the mixture was measured at 10 min intervals for 2 h at 340 nm. Transketolase activity was then derived from the difference in absorbance at 10, and 80 minutes, and expressed as nmol/min/million cells. […] Pancreatic cancer proliferation rates were then measured using the MTS assay (FIG. 35).

## O=C(CO)[C@@H](O)[C@H](O)[C@H](O)CO [fructose]
GLUT-5 mRNA; MCF-7, 5.5 mM fructose, 24 hour incubation
  increase in GLUT-5 mRNA compared to cells in 5.5 mM glucose: two-fold increase
GLUT-5 mRNA; MCF-7, 4 hours, vs 2 mM glucose
  change in GLUT-5 mRNA expression: no significant change
[1]; 96 h
  uricase activity higher than glucose-treated cells: ~20%
[1]; 120 h
  uricase activity higher than glucose-treated cells: ~50%
Transketolase (TKK)
  TKK levels higher than 5.5 mM glucose-treated cells: ~2 fold
